T1: cYFP-HDA6 (C-terminal half of YFP fused to A. thaliana HISTONE DEACETYLASE 6) (Arabidopsis thaliana, UniProt Q9FML2 1-471)
T1 construct: expressed transiently in tobacco leaf cells; not shown: C-terminal half of YFP (cYFP) from vector pBiFCt-2in1-NN
T1 sequence (looked up): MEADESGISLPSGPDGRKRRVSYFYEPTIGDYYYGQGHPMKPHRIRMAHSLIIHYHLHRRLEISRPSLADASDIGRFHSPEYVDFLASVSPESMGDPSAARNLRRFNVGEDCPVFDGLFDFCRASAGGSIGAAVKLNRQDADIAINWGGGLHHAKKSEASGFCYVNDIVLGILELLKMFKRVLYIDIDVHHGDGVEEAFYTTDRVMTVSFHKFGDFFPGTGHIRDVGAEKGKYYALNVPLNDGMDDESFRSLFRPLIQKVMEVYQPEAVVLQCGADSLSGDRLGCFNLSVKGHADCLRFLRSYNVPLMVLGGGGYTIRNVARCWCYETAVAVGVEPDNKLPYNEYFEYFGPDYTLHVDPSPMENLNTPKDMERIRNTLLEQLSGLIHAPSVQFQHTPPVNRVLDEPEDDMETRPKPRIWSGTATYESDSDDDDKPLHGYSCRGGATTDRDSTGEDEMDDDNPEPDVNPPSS

B1: nYFP-HDC1 (N-terminal half of YFP fused to full length A. thaliana HISTONE DEACETYLASE COMPLEX 1) (other)
chain: MSGVPKRSHEEGVTHPSSSSSVAKYPHEDSGSYPKSPHQPVTPPPAQVHHNHQQPHQHPQSQSQSQPQPHLQALPHPHSHSHSHSPLAAAASASAPYEVESRTVVKVARSEPRDGERRSPLPLVYRSPSLPTTVSSSDPHLTHAPVPMEPRDGAKDGREIRVESRENRSDGREIYGETKREIQGPKGDRDVKFERSVDDFSGKGNTGSYTRNDGREMYGETKREIQGPKSDRDAKFERPGDDFSGKSNAGSYTRDTKFDRENQNYNEQKGEIKMEKEGHAHLAWKEQKDYHRGKRVAEGSTANVDPWVVSRGNPQGPTEVGPKDLSAPVEGSHLEGRETVGENKVDAKNEDRFKEKDKKRKELKHREWGDRDKDRNDRRVSVLVGSVMSEPKEIGREERESDRWERERMEQKDRERNKEKDKDHIKREPRTGAEKEISQNEKELGEASAKPSEQEYVAPEQKKQNEPDNCEKDERETKEKRRERDGDSEAERAEKRSRISEKESEDGCLEGEGATEREKDAFNYGVQQRKRALRPRGSPQTTNRDNVRSRSQDNEGVQGKSEVSIVVYKVGECMQELIKLWKEYDLSHPDKSGDFANNGPTLEVRIPAEHVTATNRQVRGGQLWGTDIYTDDSDLVAVLMHTGYCRPTASPPPPTMQELRTTIRVLPSQDYYTSKLRNNVRSRAWGAGIGCSYRVERCYILKKGGGTIELEPSLTHSSTVEPTLAPMAVERSMTTRAAASNALRQQRFVREVTIQYNLCNEPWIKYSISIVADKGLKKPLFTSARLKKGEVLYLETHSCRYELCFAGEKTIKAIQASQQQSSHEAMETDNNNNKSQNHLTNGDKTDSDNSLIDVFRWSRCKKPLPQKLMRSIGFPLPADHIEVLEENLDWEDVQWSQTGVWIAGKEYTLARVHFLSPN
notes: Expressed transiently in tobacco leaf cells from a 2-in-1 BiFC vector together with the cYFP partner and a full-length RFP; not shown: N-terminal half of YFP (nYFP) from vector pBiFCt-2in1-NN
B2: cYFP-HDA19 (C-terminal half of YFP fused to A. thaliana HISTONE DEACETYLASE 19) (enzyme, Arabidopsis thaliana, UniProt O22446 1-501, looked up)
chain: MDTGGNSLASGPDGVKRKVCYFYDPEVGNYYYGQGHPMKPHRIRMTHALLAHYGLLQHMQVLKPFPARDRDLCRFHADDYVSFLRSITPETQQDQIRQLKRFNVGEDCPVFDGLYSFCQTYAGGSVGGSVKLNHGLCDIAINWAGGLHHAKKCEASGFCYVNDIVLAILELLKQHERVLYVDIDIHHGDGVEEAFYATDRVMTVSFHKFGDYFPGTGHIQDIGYGSGKYYSLNVPLDDGIDDESYHLLFKPIMGKVMEIFRPGAVVLQCGADSLSGDRLGCFNLSIKGHAECVKFMRSFNVPLLLLGGGGYTIRNVARCWCYETGVALGVEVEDKMPEHEYYEYFGPDYTLHVAPSNMENKNSRQMLEEIRNDLLHNLSKLQHAPSVPFQERPPDTETPEVDEDQEDGDKRWDPDSDMDVDDDRKPIPSRVKREAVEPDTKDKDGLKGIMERGKGCEVEVDESGSTKVTGVNPVGVEEASVKMEEEGTNKGGAEQAFPPKT
notes: expressed transiently in tobacco leaf cells; not shown: C-terminal half of YFP (cYFP) from vector pBiFCt-2in1-NN

What was measured:
A. thaliana seeds = experiment: Germination assay on agar plates (seedlings with green cotyledons on day 6 after sowing); assay type: in vivo, Arabidopsis thaliana; settings: for cumulative germination rate: increasing concentrations in agar, all lines (wildtype, hdc1-1, HDC1-OX), scored after 6 days
Description: (§1) All experiments were carried out in controlled growth rooms at a temperature of 20-22° C. and a light intensity of 120-150 μmol PAR. Plants were grown either in long days (16 h light) or in short days (10 h light) as indicated in text and figure legends. Seeds of A. thaliana wildtype and transgenic lines were sterilized, stratified and germinated on soil or on agar plates. Agar plates contained half strength Murashige & Skoog (MS) media with 1% sucrose and 0.8% agar at pH 5.7. For germination assays media were supplemented with NaCl, ABA (cat. A1049,SIGMA), PAC (Fluka cat. 46046) or TSA (SIGMA cat.T8852) at the concentrations given in the figures. Germination rate was scored on day 6 after sowing by counting seedlings that had developed green cotyledons. Experiments with adult plants were carried out on soil or in hydroponic culture. For the latter, seeds were germinated on agar plates and 2-3 weeks old seedlings were placed perforated lids of black 1-litre plastic containers. The growth medium consisted in a minimal sufficient nutrient medium (Kellermeier et al., 2013, PLoS Genet. 7). For salt treatment NaCl powder was stirred directly into the growth container to obtain the desired concentration (as stated in the figures). Control media were stirred without adding NaCl. For controlled drought experiments, plants were grown on soil in pots according to a randomized design. Using previously reported methodology (Granier et al., 2006, New Phytologist 169:623-635; Skirycz et al., 2011, Nat. Biotech. 29:212-214), controlled watering was used to impose moderate water stress. After 14 days of plant growth in well-watered soil, watering was reduced so that the relative soil water content of the stressed plants was maintained at 50% of the normal watering regime. Control plants were watered normally.
Germinating seeds arrest growth and development if they encounter low water potentials in the environment (Finkelstein et al., 2008, In Annual Review of Plant Biology (Palo Alto: Annual Reviews), pp. 387-415). The post-imbibition response is mediated by ABA and can be mimicked by external application of ABA. […] To test a function of HDC1 in this process seeds of A. thaliana wildtype, hdc1-1, and HDC1-0X lines were imbibed to break dormancy, and subsequently plated out on agar plates containing different concentrations of NaCl, mannitol, ABA or PAC. A cumulative germination rate (encompassing all post-imbibition stages of seedling development) was scored as the number of seedlings that had developed cotyledons after 6 days.
To test whether histone deactylation was required for ABA-dependence of seed germination and for the effect of HDC1 on this process, we subjected germinating seeds to the histone deacetylase inhibitor trichostatin A (TSA).

A. thaliana plants = test system: A. thaliana plants
Description: as §1

[1] = target: T2, cYFP-SIN3 (C-terminal half of YFP fused to A. thaliana Sin3-like protein 3) (Arabidopsis thaliana, UniProt O48686 1-1330); experiment: ratiometric BiFC in tobacco leaf cells (nYFP-HDC1 with cYFP-SIN3)
T2 construct: negative control partner for nYFP-HDC1; also called AtSin3; SNL3; not shown: C-terminal half of YFP (cYFP) from vector pBiFCt-2in1-NN
T2 sequence (O48686 whole entry, the tested form may be a part): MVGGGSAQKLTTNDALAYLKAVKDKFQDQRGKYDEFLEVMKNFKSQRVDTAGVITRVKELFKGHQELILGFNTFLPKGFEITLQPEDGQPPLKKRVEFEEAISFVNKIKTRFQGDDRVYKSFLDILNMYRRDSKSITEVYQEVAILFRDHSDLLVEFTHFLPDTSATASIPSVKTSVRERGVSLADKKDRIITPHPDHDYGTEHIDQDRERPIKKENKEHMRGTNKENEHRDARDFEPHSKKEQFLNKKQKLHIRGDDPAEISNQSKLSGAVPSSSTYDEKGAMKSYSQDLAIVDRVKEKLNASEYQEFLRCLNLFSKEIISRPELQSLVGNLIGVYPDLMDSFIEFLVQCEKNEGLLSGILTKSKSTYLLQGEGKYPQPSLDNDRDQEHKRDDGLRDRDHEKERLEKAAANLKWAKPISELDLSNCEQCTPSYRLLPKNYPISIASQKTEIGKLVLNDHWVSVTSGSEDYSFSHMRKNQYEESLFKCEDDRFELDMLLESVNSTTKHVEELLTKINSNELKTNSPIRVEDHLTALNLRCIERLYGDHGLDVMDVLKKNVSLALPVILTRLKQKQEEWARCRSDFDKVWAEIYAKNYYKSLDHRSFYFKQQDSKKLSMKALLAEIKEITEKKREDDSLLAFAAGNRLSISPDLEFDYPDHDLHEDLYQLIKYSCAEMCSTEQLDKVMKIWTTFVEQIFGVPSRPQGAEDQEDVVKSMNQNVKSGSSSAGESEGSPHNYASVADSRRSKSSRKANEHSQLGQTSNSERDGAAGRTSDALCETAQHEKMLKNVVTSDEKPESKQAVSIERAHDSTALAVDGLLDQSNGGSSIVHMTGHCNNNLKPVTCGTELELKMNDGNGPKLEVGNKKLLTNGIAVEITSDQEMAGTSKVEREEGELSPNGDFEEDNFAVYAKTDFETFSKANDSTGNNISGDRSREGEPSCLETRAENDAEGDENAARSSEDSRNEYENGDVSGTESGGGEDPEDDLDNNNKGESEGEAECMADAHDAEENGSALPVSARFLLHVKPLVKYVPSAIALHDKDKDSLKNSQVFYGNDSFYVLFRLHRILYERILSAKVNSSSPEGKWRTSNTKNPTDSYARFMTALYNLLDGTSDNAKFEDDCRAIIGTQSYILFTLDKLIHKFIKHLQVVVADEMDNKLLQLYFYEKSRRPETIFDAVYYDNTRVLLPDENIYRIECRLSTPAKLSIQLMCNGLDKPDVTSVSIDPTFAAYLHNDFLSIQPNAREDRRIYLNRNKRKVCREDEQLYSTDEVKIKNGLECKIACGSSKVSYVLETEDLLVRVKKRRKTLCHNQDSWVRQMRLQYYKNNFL

[2] = target: B2; experiment: ratiometric BiFC in tobacco leaf cells (nYFP-HDC1 with cYFP-HDA19)
Description: (§2) Fluorescence in tobacco epidermal cells was assessed two days post infiltration using a CLSM-510-META-UV confocal microscope (Zeiss, Jena). For single protein localization GFP fluorescence was excited at 488 nm with light from an Argon laser and collected after passage through an NFT545 dichroic mirror with a 505 nm long pass filter. For co-localization experiments GFP fluorescence was collected with a 505-530 band pass filter. RFP fluorescence was excited at 543 nm with light from a Helium Neon laser and was collected after passage through an NFT545 dichroic mirror and a 560-615 nm band pass filter. YFP fluorescence was excited at 514 nm with light from Argon laser and was collected using lambda mode between 520-550 nm. Co-localization plane and line scans were evaluated using Zeiss LSM 510 AIM software (v3.2).
(§3) To investigate whether HDC1 is a member of HDAC protein complexes in plants we tested co-localization and direct interaction of HDC1 with known HDACs of A. thaliana. […] Direct interaction was investigated by bimolecular fluorescence complementation (BiFC). To avoid misinterpretation of background fluorescence we used a new ratiometric BiFC assay (Grefen and Blatt, 2012, supra) in which N- and C-terminal halves of yellow fluorescent protein (YFP), fused to HDC1 and HDA6/19 respectively, and a full-length RFP, are expressed from a single vector FIG. 4A). […]

[3] = target: T1, cYFP-HDA6 (C-terminal half of YFP fused …); experiment: ratiometric BiFC in tobacco leaf cells (nYFP-HDC1 with cYFP-HDA6)
Description: as §2, §3

[4] = target: T3, nYFP-SIN3 (N-terminal half of YFP fused to A. thaliana Sin3-like protein 3) (Arabidopsis thaliana, UniProt O48686 1-1330); experiment: ratiometric BiFC in tobacco leaf cells (nYFP-SIN3 with cYFP-HDA19)
T3 construct: positive control partner for cYFP-HDA19; also called AtSin3; SNL3; not shown: N-terminal half of YFP (nYFP) from vector pBiFCt-2in1-NN
T3 sequence (O48686 whole entry, the tested form may be a part): as above

[5] = 150 mM NaCl for 24 hours, all lines

Molecule: OC[C@@H](O)[C@@H](O)[C@H](O)[C@H](O)CO [mannitol]
- cumulative germination rate (A. thaliana seeds): decrease in germination rates

Molecule: CC(/C=C/C(=O)NO)=C\[C@@H](C)C(=O)c1ccc(N(C)C)cc1 [TSA, trichostatin A]
- effect on ABA-sensitivity of germination (A. thaliana seeds; HDC1-overexpressing lines): increased ABA-sensitivity
- effect on seed germination (A. thaliana seeds; low-micromolar TSA (0.3 or 3 μM), in the absence of ABA): no effect on seed germination
- effect on ABA-sensitivity of germination (A. thaliana seeds; wildtype plants, 0.3 μM TSA at 0.2 μM ABA): significant effect
- effect on ABA-sensitivity of germination (A. thaliana seeds; wildtype plants, 3 μM TSA at 0.4 μM ABA): significant effect
- effect on ABA-sensitivity of germination (A. thaliana seeds; wildtype plants, dose-dependent): increased the ABA-sensitivity

Molecule: CC1=CC(=O)CC(C)(C)[C@@]1(O)/C=C/C(C)=C\C(=O)O [ABA, Abscisic acid]
- cumulative germination rate (A. thaliana seeds): decrease in germination rates

Molecule: [Cl-].[Na+] [NaCl]
- chlorosis or desiccation (A. thaliana plants; 80 mM NaCl, 6 days): did not produce severe chlorosis or desiccation
- growth (A. thaliana plants; 80 mM NaCl, 6 days, all lines): slowed growth
- shoot water content (A. thaliana plants; 80 mM NaCl, after 6 days, all lines, from 92±1% without salt): 86±1%
- ABA biosynthesis (shoot ABA levels) (A. thaliana plants; [5]): efficiently induced
- transcript levels of ABA-receptor PYL4 and 'drought-repressed' gene DR4 (A. thaliana plants; [5]): efficiently repressed
- cumulative germination rate (A. thaliana seeds): decrease in germination rates

Molecule: CC(C)(C)[C@@H](O)[C@@H](Cc1ccc(Cl)cc1)n1cncn1 (racemic) [PAC, paclobutrazol]
- cumulative germination rate (A. thaliana seeds): decrease in germination rates

Molecule: B1
- binding result [1]: no binding
- binding result [2]: binds
- binding result [3]: binds

Molecule: B2
- binding result [4]: binds

Source: US20180037903A1, “METHODS AND MEANS FOR INCREASING STRESS TOLERANCE AND BIOMASS IN PLANTS” (THE UNIVERSITY COURT OF THE UNIVERSITY OF GLASGOW, priority 2013, published 2018)
